# Test results taken from patent US12162893B2 (Erasca, Inc., priority 2020, dated 2024).
# Target: T1, mutant G12C K-RAS (Homo sapiens, UniProt P01116, G12C)
# T1 construct: made in house; host or cells: E. coli BL21
# Assay: covalent adduct formation (CAF) with mutant G12C K-RAS
# Format: binding
# Settings: Table 1, Pyrimidone Core-Morpholine Unsubstituted; after 60 minutes at 10 micromolar
# Protocol: Embodiments disclosed herein are further illustrated by the following examples in Tables 1-4 and the Examples hereinbelow. The Tables indicate the compound number, structure, the observed mass spectral molecular weight peak, and covalent adduct formation (CAF) with a mutant G12C K-RAS after 60 minutes at a concentration of 10 micromolar.
row,SMILES,% CAF (60 min) [%]
1,C=CC(=O)N1CCN(c2nc(=O)n3c4c(c(N(C)c5ccccc5C)c(Cl)cc24)OCC3)CC1 [Example 6],17.6
2,"C=CC(=O)N1C[C@H](C)N(c2nc(=O)n3c4c(c(-c5ccc(F)cc5F)c(Cl)cc24)OCC3)C[C@H]1C [Example 11, 7-((2S,5R)-4-acryloyl-2,5-dimethylpiperazin-1-yl)-9-chloro-10-(2,4-difluorophenyl)-2H-[1,4]oxazino[2,3,4-ij]quinazolin-5(3H)-one]",68
3,"C=CC(=O)N1C[C@H](C)N(c2nc(=O)n3c4c(c(-c5ccc(F)c(Cl)c5)ccc24)OCC3)C[C@H]1C [Example 12, 7-((2S,5R)-4-acryloyl-2,5-dimethylpiperazin-1-yl)-10-(3-chloro-4-fluorophenyl)-2H-[1,4]oxazino[2,3,4-ij]quinazolin-5(3H)-one]",0
4,"C=CC(=O)N1C[C@H](C)N(c2nc(=O)n3c4c(c(-c5cccc6ccccc56)ccc24)OCC3)C[C@H]1C [Example 13, 7-((2S,5R)-4-acryloyl-2,5-dimethylpiperazin-1-yl)-10-(naphthalen-1-yl)-2H-[1,4]oxazino[2,3,4-ij]quinazolin-5(3H)-one]",3
5,C#CC(=O)N1C[C@H](C)N(c2nc(=O)n3c4c(c(-c5ccc(F)cc5F)c(Cl)cc24)OCC3)C[C@H]1C [Example 14],46
6,"C=CC(=O)N1C[C@H](C)N(c2nc(=O)n3c4c(c(-c5cccc6cccc(Cl)c56)ccc24)OCC3)C[C@H]1C [Example 15, 7-((2S,5R)-4-acryloyl-2,5-dimethylpiperazin-1-yl)-10-(8-chloronaphthalen-1-yl)-2H-[1,4]oxazino[2,3,4-ij]quinazolin-5(3H)-one]",0
7,"C=CC(=O)N1C[C@H](C)N(c2nc(=O)n3c4c(c(-c5cc(F)cc(Cl)c5)ccc24)OCC3)C[C@H]1C [Example 16, 7-((2S,5R)-4-acryloyl-2,5-dimethylpiperazin-1-yl)-10-(3-chloro-5-fluorophenyl)-2H-[1,4]oxazino[2,3,4-ij]quinazolin-5(3H)-one]",0
8,"C=CC(=O)N1C[C@H](C)N(c2nc(=O)n3c4c(c(-c5ccc(Cl)cc5F)ccc24)OCC3)C[C@H]1C [Example 17, 7-((2S,5R)-4-acryloyl-2,5-dimethylpiperazin-1-yl)-10-(4-chloro-2-fluorophenyl)-2H-[1,4]oxazino[2,3,4-ij]quinazolin-5(3H)-one]",2

# Continued, values first:
row,% CAF (60 min) [%],SMILES
1,87.6,"C=CC(=O)N1CCN(c2nc(=O)n3c4c(c(-c5c(O)cccc5F)c(Cl)cc24)OCC3)CC1 [Example 5, (S)-7-(4-acryloylpiperazin-1-yl)-9-chloro-10-(2-fluoro-6-hydroxyphenyl)-2H-[1,4]oxazino[2,3,4-ij]quinazolin-5(3H)-one]"
2,79.6,"C=CC(=O)N1CCN(c2nc(=O)n3c4c(c(-c5c(C)ccc6[nH]ncc56)c(Cl)cc24)OCC3)CC1 [Example 7, (R)-7-(4-acryloylpiperazin-1-yl)-9-chloro-10-(5-methyl-1H-indazol-4-yl)-2H-[1,4]oxazino[2,3,4-ij]quinazolin-5(3H)-one]"
3,0,"C=CC(=O)N1CCN(c2nc(=O)n3c4c(c(-c5c(C)ccc6[nH]ncc56)c(Cl)cc24)OCC3)CC1 [Example 8, (S)-7-(4-acryloylpiperazin-1-yl)-9-chloro-10-(5-methyl-1H-indazol-4-yl)-2H-[1,4]oxazino[2,3,4-ij]quinazolin-5(3H)-one]"
4,72.6,"C=CC(=O)N1CCN(c2nc(=O)n3c4c(c(-c5c(C)ccc6[nH]nc(C)c56)c(Cl)cc24)OCC3)CC1 [Example 9, 7-(4-acryloylpiperazin-1-yl)-9-chloro-10-(3,5-dimethyl-1H-indazol-4-yl)-2H-[1,4]oxazino[2,3,4-ij]quinazolin-5(3H)-one]"

# Same assay, conditions: Table 2, Pyrimidone Core-Morpholine Substituted; after 60 minutes at 10 micromolar
row,% CAF (60 min) [%],SMILES
1,84.7,"C=CC(=O)N1CCN(c2nc(=O)n3c4c(c(-c5c(O)cccc5F)c(Cl)cc24)OC[C@@H]3CO)[C@@H](C)C1 (single isomer, unassigned) [Example 25]"
2,0,"C=CC(=O)N1CCN(c2nc(=O)n3c4c(c(-c5c(O)cccc5F)c(Cl)cc24)OC[C@H]3CO)CC1 [Example 20, (3R,10R)-7-(4-acryloylpiperazin-1-yl)-9-chloro-10-(2-fluoro-6-hydroxyphenyl)-3-(hydroxymethyl)-2H-[1,4]oxazino[2,3,4-ij]quinazolin-5(3H)-one]"
3,72.8,"C=CC(=O)N1CCN(c2nc(=O)n3c4c(c(-c5c(O)cccc5F)c(Cl)cc24)OC[C@@H]3CO)CC1 [Example 21, (3S)-7-(4-acryloylpiperazin-1-yl)-9-chloro-10-(2-fluoro-6-hydroxyphenyl)-3-(hydroxymethyl)-2H-[1,4]oxazino[2,3,4-ij]quinazolin-5(3H)-one]"
4,87.6,"C=CC(=O)N1CCN(c2nc(=O)n3c4c(c(-c5c(O)cccc5F)c(Cl)cc24)OC[C@H]3CO)[C@@H](C)C1 [Example 22, (3R,10S)-7-((S)-4-acryloyl-2-methylpiperazin-1-yl)-9-chloro-10-(2-fluoro-6-hydroxyphenyl)-3-(hydroxymethyl)-2H-[1,4]oxazino[2,3,4-ij]quinazolin-5(3H)-one]"
5,0,"C=CC(=O)N1CCN(c2nc(=O)n3c4c(c(-c5c(O)cccc5F)c(Cl)cc24)OC[C@H]3CO)[C@@H](C)C1 [Example 23, (3R,10R)-7-((S)-4-acryloyl-2-methylpiperazin-1-yl)-9-chloro-10-(2-fluoro-6-hydroxyphenyl)-3-(hydroxymethyl)-2H-[1,4]oxazino[2,3,4-ij]quinazolin-5(3H)-one]"
6,81.9,"C=CC(=O)N1C[C@H](C)N(c2nc(=O)n3c4c(c(-c5c(O)cccc5F)c(Cl)cc24)OC[C@@H]3CO)C[C@H]1C [Example 26, (3S)-7-((2S,5R)-4-acryloyl-2,5-dimethylpiperazin-1-yl)-9-chloro-10-(2-fluoro-6-hydroxyphenyl)-3-(hydroxymethyl)-2H-[1,4]oxazino[2,3,4-ij]quinazolin-5(3H)-one]"
7,85.5,"C=CC(=O)N1C[C@H](C)N(c2nc(=O)n3c4c(c(-c5c(O)cccc5F)c(Cl)cc24)OC[C@@H]3CO)C[C@H]1C [Example 27, (3S,10S)-7-((2S,5R)-4-acryloyl-2,5-dimethylpiperazin-1-yl)-9-chloro-10-(2-fluoro-6-hydroxyphenyl)-3-(hydroxymethyl)-2H-[1,4]oxazino[2,3,4-ij]quinazolin-5(3H)-one]"
8,1.3,"C=CC(=O)N1C[C@H](C)N(c2nc(=O)n3c4c(c(-c5c(O)cccc5F)c(Cl)cc24)OC[C@@H]3CO)C[C@H]1C [Example 28, (3S,10R)-7-((2S,5R)-4-acryloyl-2,5-dimethylpiperazin-1-yl)-9-chloro-10-(2-fluoro-6-hydroxyphenyl)-3-(hydroxymethyl)-2H-[1,4]oxazino[2,3,4-ij]quinazolin-5(3H)-one]"
9,68.1,C=CC(=O)N1C[C@H](C)N(c2nc(=O)n3c4c(c(-c5c(O)cccc5F)c(Cl)cc24)OC[C@H]3CO)C[C@H]1C [Example 30]
10,0,"C=CC(=O)N1C[C@H](C)N(c2nc(=O)n3c4c(c(-c5c(O)cccc5F)c(Cl)cc24)OC[C@H]3CO)C[C@H]1C [Example 32, (3R,10R)-7-((2S,5R)-4-acryloyl-2,5-dimethylpiperazin-1-yl)-9-chloro-10-(2-fluoro-6-hydroxyphenyl)-3-(hydroxymethyl)-2H-[1,4]oxazino[2,3,4-ij]quinazolin-5(3H)-one]"
11,87.3,"C=CC(=O)N1C[C@H](C)N(c2nc(=O)n3c4c(c(-c5c(O)cccc5F)c(Cl)cc24)OC[C@H]3CO)C[C@H]1C [Example 33, (3R,10S)-7-((2S,5R)-4-acryloyl-2,5-dimethylpiperazin-1-yl)-9-chloro-1-(2-fluoro-6-hydroxyphenyl)-3-(hydroxymethyl)-2H-[1,4]oxazino[2,3,4-ij]quinazolin-5(3H)-one]"
12,77.4,"C=CC(=O)N1C[C@H](C)N(c2nc(=O)n3c4c(c(-c5ccc(F)cc5)c(Cl)cc24)OCC3CN(C)C)C[C@H]1C (stereo partly drawn) [Example 34, 7-((2S,5R)-4-acryloyl-2,5-dimethylpiperazin-1-yl)-9-chloro-3-((dimethylamino)methyl)-10-(4-fluorophenyl)-2H-[1,4]oxazino[2,3,4-ij]quinazolin-5(3H)-one]"

# Same assay, conditions: Table 6; 10 μM, 1 h
row,"% CAF @ 10 μM,1 h [%]",SMILES
1,34.2,C=CC(=O)N1C[C@H](C)N(c2nc(=O)n3c4c(c(-c5ccc(F)cc5F)c(Cl)cc24)OC[C@@H]3CN2CCC(F)(F)C2)C[C@H]1C (stereo in doubt) [Example 202]
2,85.6,"C=CC(=O)N1C[C@H](C)N(c2nc(=O)n3c4c(c(-c5ccc(F)cc5F)c(Cl)cc24)OCC3CN2CCC(F)(F)C2)C[C@H]1C (stereo in doubt) [Example 207, (3R)-7-((2S,5R)-4-acryloyl-2,5-dimethylpiperazin-1-yl)-9-chloro-10-(2,4-difluorophenyl)-3-((3,3-difluoropyrrolidin-1-yl)methyl)-2H-[1,4]oxazino[2,3,4-ij]quinazolin-5(3H)-one]"
3,66.1,"C=CC(=O)N1C[C@H](C)N(c2nc(=O)n3c4c(c(-c5ccc(F)cc5F)c(Cl)cc24)OC[C@@H]3COC2CCN(C)C2)C[C@H]1C (stereo in doubt) [Example 313, (3S)-7-((2S,5R)-4-acryloyl-2,5-dimethylpiperazin-1-yl)-9-chloro-10-(2,4-difluorophenyl)-3-((((S)-1-methylpyrrolidin-3-yl)oxy)methyl)-2,3-dihydro-5H-[1,4]oxazino[2,3,4-ij]quinazolin-5-one]"
4,79,"C=CC(=O)N1C[C@H](C)N(c2nc(=O)n3c4c(c(-c5ccc(F)cc5F)c(Cl)cc24)OC[C@@H]3COC2CCN(C)C2)C[C@H]1C (stereo in doubt) [Example 336, (3S)-7-((2S,5R)-4-acryloyl-2,5-dimethylpiperazin-1-yl)-9-chloro-10-(2,4-difluorophenyl)-3-((((S)-1-methylpyrrolidin-3-yl)oxy)methyl)-2H-[1,4]oxazino[2,3,4-ij]quinazolin-5(3H)-one]"
